Key:
[1] = tested on: Langat virus strain TP21 (LGTV); type: cell-based; settings: n = 4
LGTV = tested on: LGTV; parameters: species or system Langat virus
SARS-CoV-2 = SARS-CoV-2 virus inhibition (plaque) assay; type: cell-based, Severe Acute Respiratory Syndrome Coronavirus 2; settings: read-out: concentration for 50% reduction of PFU / viral load (SARS-CoV-2)
IAV (H1N1/CApdm09) = assay: Influenza A virus inhibition (plaque) assay; type: cell-based; settings: read-out: concentration required to suppress IAV (by 50%)

LLGDFFRKSKEKIGKEFKRIVQRIKDFLRNLVPRTES [LL-37, human cathelicidin-derived antimicrobial peptide used as a control, reference compound]
effect on virus infectivity (LGTV viral load) [1]: did not affect virus infectivity

DLTTKLWSSWGYYLGKKARWNLKHPYVQF [D-PLNC8 α]
permeabilization of LGTV particles (Sytox Green staining), single peptide (LGTV): not as efficient

SVPTSVYTLGIKILWSAYKHRKTIEKSFNKGFYH [D-PLNC8 β]
permeabilization of LGTV particles (Sytox Green staining), single peptide (LGTV): permeabilized
IC50 (SARS-CoV-2): ~500 nM
IC50 (IAV (H1N1/CApdm09)): ~500 nM

Reference: article PMC9710782, “Plantaricin NC8 αβ rapidly and efficiently inhibits flaviviruses and SARS-CoV-2 by disrupting their envelopes” (PLOS ONE, 2022)
